What was measured:
[1] = biological target: Serine/threonine-protein kinase PAK 6 (Homo sapiens) (UniProt Q9NQU5); test: Percentage PAK6 activity remaining in the presence of 0.1uM inhibitor
[2] = biological target: Serine/threonine-protein kinase pim-3 (Homo sapiens, UniProt Q86V86); test: Percentage PIM3 activity remaining in the presence of 0.1uM inhibitor
[3] = biological target: Dual specificity tyrosine-phosphorylation-regulated kinase 1A (Homo sapiens) (UniProt Q13627); test: Percentage DYRK1A activity remaining in the presence of 0.1uM inhibitor
[4] = biological target: T1, Serine/threonine-protein kinase Nek2 (Homo sapiens) (UniProt P51955); test: Percentage NEK2a activity remaining in the presence of 0.1uM inhibitor
T1 sequence (whole entry): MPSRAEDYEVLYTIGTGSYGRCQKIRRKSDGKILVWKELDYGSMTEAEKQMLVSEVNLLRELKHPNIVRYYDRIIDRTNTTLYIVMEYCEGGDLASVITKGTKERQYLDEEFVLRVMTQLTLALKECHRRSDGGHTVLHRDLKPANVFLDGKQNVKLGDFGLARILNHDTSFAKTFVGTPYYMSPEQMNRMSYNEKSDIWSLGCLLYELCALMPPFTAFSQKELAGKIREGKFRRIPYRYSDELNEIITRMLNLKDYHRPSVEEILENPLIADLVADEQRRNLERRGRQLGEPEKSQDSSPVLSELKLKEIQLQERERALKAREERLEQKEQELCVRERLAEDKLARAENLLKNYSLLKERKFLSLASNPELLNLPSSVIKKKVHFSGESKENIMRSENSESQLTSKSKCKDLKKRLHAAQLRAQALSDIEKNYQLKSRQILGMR

[5] = biological target: Ribosomal protein S6 kinase alpha-5 (Homo sapiens) (UniProt O75582); test: Percentage MSK1 activity remaining in the presence of 0.1uM inhibitor
[6] = biological target: Mitogen-activated protein kinase 9 (Homo sapiens, UniProt P45984); test: Percentage JNK2 activity remaining in the presence of 0.1uM inhibitor
Mitogen-activated protein kinase 9, sequence (P45984 whole entry, looked up): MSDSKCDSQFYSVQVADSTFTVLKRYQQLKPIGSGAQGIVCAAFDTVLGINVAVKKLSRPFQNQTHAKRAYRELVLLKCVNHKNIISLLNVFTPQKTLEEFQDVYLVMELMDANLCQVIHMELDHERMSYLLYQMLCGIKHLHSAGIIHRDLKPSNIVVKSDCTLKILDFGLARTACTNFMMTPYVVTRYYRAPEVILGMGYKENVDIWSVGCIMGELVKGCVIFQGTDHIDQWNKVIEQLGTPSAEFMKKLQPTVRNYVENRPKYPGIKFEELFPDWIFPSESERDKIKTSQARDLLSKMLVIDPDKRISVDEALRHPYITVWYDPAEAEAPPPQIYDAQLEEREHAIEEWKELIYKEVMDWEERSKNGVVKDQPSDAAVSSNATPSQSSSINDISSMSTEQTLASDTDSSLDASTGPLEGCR

[7] = biological target: Serine/threonine-protein kinase PAK 4 (Homo sapiens, UniProt O96013); test: Percentage PAK4 activity remaining in the presence of 0.1uM inhibitor
Serine/threonine-protein kinase PAK 4, sequence (O96013 whole entry, looked up): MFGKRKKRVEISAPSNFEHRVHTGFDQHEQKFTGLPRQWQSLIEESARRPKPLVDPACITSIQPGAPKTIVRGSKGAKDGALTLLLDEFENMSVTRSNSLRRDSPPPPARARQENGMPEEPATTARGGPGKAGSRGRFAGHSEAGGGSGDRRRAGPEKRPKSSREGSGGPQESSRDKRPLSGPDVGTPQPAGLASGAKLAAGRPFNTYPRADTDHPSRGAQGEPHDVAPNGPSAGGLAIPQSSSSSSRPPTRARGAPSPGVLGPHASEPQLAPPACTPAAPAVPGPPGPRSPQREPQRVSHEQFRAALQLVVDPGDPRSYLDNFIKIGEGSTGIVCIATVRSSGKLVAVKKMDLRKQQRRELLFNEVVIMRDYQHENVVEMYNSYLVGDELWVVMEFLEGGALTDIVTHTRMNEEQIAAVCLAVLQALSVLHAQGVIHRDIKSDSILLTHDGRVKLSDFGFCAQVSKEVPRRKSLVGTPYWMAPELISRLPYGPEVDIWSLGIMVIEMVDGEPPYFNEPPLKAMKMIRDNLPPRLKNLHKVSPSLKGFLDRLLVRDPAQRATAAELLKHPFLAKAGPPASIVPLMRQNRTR

[8] = biological target: T2, Serine/threonine-protein kinase D1 (Homo sapiens) (UniProt Q15139); test: Percentage PKD1 activity remaining in the presence of 0.1uM inhibitor
T2 sequence (whole entry): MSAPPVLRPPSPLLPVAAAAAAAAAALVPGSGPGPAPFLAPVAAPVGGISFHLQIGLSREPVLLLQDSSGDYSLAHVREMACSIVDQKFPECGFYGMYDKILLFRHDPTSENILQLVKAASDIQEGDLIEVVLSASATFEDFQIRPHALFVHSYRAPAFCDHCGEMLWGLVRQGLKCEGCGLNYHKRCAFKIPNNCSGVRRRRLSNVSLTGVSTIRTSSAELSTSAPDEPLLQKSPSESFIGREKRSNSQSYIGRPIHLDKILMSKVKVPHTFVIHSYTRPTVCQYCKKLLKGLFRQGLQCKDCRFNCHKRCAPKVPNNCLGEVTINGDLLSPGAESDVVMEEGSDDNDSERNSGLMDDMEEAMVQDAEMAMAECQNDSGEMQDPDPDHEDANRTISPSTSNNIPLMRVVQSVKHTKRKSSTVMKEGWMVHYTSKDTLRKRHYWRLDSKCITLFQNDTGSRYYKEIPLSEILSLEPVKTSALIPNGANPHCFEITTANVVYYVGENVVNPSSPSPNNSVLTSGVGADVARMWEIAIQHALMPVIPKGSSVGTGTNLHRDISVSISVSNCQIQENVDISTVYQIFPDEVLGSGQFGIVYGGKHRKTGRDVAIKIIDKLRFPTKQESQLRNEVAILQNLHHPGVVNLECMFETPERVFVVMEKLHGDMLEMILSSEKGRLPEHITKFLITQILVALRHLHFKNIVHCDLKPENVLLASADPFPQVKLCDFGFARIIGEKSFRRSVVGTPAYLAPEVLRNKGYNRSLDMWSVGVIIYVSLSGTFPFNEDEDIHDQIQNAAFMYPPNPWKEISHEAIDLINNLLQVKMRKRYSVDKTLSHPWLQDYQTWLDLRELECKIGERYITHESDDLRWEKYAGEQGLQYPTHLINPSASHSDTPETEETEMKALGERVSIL

[9] = biological target: Proto-oncogene tyrosine-protein kinase Src (Gallus gallus) (UniProt P00523); test: Percentage Src activity remaining in the presence of 0.1uM inhibitor
[10] = biological target: Calcium/calmodulin-dependent protein kinase type 1 (Homo sapiens) (UniProt Q14012); test: Percentage CaMK1 activity remaining in the presence of 0.1uM inhibitor
Calcium/calmodulin-dependent protein kinase type 1 (Homo sapiens), sequence (Q14012 whole entry, looked up): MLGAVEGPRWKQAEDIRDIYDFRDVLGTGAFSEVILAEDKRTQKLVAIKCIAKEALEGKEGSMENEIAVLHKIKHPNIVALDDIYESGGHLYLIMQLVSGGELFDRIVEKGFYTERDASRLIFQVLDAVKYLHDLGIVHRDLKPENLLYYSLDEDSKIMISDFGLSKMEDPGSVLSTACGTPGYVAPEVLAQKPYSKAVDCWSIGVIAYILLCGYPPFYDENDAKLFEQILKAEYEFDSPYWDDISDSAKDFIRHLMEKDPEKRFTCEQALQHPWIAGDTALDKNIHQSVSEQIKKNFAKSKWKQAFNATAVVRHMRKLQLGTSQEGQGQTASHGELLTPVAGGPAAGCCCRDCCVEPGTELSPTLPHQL

[11] = biological target: Cyclin-dependent kinase 2/cyclin A (Homo sapiens) (UniProt P24941+P20248+P78396); test: Percentage CDK2-cyclinA activity remaining in the presence of 0.1uM inhibitor; assay type: protein-complex assay
[12] = biological target: T3, Serine/threonine-protein kinase BRSK2 (Homo sapiens) (UniProt Q8IWQ3); test: Percentage BRSK2 activity remaining in the presence of 0.1uM inhibitor
T3 sequence (whole entry): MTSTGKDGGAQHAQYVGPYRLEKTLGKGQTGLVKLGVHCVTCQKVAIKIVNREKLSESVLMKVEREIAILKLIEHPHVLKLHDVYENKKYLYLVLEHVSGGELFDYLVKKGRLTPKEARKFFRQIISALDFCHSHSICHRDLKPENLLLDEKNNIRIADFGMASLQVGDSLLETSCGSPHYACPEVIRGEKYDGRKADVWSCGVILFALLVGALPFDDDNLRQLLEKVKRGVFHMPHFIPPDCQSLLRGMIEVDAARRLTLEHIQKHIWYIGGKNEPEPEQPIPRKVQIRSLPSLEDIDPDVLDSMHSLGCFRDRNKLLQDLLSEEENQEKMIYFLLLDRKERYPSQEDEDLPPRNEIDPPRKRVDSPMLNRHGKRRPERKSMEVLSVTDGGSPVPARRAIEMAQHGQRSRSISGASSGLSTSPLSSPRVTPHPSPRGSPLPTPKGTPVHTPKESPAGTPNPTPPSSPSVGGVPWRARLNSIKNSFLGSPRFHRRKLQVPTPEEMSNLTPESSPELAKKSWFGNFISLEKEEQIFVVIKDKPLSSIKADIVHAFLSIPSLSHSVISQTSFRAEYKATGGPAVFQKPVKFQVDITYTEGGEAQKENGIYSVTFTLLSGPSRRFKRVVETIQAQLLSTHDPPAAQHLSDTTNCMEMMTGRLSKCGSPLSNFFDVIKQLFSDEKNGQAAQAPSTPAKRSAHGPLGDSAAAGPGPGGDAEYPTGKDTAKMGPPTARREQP

[13] = biological target: Serine/threonine-protein kinase N2 (Homo sapiens) (UniProt Q16513); test: Percentage PRK2 activity remaining in the presence of 0.1uM inhibitor
Serine/threonine-protein kinase N2 (Homo sapiens), sequence (Q16513 whole entry, looked up): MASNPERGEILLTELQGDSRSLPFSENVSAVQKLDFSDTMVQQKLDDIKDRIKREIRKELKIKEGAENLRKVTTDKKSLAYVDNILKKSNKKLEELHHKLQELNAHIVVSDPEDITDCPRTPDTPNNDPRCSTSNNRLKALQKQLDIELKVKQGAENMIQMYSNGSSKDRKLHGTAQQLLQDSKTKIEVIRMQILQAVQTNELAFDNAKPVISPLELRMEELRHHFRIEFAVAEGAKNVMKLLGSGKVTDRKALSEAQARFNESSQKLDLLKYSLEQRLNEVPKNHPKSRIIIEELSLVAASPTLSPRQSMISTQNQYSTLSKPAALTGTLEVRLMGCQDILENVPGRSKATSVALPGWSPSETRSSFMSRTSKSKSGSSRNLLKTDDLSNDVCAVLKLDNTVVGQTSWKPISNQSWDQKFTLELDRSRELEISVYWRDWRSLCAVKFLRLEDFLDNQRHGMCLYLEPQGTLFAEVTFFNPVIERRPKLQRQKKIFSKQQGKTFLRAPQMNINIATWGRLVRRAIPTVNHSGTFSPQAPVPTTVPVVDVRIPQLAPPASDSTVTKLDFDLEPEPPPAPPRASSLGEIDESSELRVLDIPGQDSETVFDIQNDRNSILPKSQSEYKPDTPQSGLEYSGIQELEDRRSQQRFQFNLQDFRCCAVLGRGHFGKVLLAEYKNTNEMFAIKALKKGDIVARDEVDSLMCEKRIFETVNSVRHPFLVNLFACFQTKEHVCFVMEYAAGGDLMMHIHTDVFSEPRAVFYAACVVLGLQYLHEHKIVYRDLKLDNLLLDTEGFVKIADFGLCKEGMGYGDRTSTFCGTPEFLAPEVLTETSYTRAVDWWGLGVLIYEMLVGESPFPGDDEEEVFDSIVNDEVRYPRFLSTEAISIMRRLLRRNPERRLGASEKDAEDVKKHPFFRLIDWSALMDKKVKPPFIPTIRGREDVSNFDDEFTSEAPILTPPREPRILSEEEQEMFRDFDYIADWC

[14] = biological target: Rho-associated protein kinase 2 (Homo sapiens) (UniProt O75116); test: Percentage ROCK2 activity remaining in the presence of 0.1uM inhibitor
Rho-associated protein kinase 2 (Homo sapiens), sequence (O75116 whole entry, looked up): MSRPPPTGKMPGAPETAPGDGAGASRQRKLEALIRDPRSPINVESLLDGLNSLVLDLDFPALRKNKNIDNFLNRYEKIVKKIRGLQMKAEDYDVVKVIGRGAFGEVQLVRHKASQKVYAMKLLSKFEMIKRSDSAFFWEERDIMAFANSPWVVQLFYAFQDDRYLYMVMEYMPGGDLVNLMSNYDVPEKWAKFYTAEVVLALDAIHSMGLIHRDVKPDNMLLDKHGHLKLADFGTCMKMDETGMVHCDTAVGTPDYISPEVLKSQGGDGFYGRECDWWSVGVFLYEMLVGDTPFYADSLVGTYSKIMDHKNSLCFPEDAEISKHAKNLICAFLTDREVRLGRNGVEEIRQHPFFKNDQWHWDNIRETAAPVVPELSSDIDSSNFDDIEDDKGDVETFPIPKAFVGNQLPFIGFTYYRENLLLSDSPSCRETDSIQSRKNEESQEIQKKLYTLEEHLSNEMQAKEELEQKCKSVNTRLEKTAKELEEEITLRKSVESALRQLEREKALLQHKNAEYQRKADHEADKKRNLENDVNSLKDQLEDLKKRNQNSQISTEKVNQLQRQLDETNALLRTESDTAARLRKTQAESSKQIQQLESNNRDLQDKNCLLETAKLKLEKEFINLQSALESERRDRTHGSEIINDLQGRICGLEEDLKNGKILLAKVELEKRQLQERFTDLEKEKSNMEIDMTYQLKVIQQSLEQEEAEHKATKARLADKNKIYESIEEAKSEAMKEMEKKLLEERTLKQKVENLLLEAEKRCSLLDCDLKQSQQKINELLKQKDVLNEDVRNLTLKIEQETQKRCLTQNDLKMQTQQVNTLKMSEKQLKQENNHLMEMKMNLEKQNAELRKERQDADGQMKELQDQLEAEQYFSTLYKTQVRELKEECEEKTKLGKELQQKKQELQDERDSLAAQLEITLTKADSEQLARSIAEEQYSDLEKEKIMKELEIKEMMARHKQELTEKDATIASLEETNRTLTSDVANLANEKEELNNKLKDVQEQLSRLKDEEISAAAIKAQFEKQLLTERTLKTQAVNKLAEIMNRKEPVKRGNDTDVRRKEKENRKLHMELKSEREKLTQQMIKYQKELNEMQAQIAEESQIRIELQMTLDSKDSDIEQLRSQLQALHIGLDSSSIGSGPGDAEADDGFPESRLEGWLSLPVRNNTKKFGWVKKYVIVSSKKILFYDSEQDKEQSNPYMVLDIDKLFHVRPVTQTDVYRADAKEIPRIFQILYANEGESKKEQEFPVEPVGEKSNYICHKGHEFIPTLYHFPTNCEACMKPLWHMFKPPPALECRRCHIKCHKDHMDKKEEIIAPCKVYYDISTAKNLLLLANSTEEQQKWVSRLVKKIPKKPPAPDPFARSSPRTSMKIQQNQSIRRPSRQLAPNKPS

[15] = biological target: Tyrosine-protein kinase CSK (Homo sapiens, UniProt P41240); test: Percentage CSK activity remaining in the presence of 0.1uM inhibitor
Tyrosine-protein kinase CSK, sequence (P41240 2-450 limits assumed): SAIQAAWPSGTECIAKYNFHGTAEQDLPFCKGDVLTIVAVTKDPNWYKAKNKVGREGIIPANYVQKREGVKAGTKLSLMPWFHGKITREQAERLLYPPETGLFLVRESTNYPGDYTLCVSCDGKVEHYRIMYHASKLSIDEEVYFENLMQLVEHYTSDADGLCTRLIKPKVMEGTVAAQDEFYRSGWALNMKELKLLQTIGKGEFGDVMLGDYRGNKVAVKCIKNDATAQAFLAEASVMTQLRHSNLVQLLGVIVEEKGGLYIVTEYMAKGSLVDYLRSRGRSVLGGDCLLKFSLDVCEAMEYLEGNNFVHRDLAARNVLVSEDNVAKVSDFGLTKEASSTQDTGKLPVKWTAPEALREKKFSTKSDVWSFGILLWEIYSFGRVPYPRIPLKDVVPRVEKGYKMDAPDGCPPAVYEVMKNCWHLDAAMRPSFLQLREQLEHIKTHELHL

Serine/threonine-protein kinase PAK 6 (Homo sapiens), sequence (Q9NQU5 whole entry, looked up): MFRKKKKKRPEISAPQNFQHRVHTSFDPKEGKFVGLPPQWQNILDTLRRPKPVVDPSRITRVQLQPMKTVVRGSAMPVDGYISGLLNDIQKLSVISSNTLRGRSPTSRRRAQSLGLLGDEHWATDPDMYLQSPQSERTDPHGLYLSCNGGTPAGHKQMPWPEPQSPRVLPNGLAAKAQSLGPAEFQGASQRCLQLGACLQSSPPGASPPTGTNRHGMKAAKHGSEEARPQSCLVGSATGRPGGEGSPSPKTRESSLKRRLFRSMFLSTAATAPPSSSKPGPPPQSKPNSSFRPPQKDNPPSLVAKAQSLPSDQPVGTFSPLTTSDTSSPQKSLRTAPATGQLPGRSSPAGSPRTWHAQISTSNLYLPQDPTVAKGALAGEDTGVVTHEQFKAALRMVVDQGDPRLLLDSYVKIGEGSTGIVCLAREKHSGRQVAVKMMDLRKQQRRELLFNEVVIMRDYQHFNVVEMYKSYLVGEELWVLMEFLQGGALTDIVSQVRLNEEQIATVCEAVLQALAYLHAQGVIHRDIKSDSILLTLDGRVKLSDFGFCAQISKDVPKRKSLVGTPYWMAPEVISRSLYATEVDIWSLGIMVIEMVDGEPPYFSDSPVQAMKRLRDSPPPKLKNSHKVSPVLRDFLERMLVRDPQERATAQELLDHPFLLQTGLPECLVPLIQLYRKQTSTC

CC(C)CCN1c2nc(Nc3cc(F)c(O)c(F)c3)ncc2N(C)C(=O)C1C (stereo not given) showed an Activity [1] of 102%, an Activity [2] of 65% and an Activity [3] of 96%. It also gave an Activity [4] of 98%, an Activity [5] of 125% and an Activity [6] of 115%. The Activity [7] was 81%, the Activity [8] was 63% and the Activity [9] was 96%. It also gave an Activity [10] of 103%, an Activity [11] of 84% and an Activity [12] of 78%. It also gave an Activity [13] of 97%, an Activity [14] of 84% and an Activity [15] of 99%.
O=C(NCCCNc1nc(Nc2cccc(NC(=O)N3CCCC3)c2)ncc1I)c1cccs1 was tested, and the Activity [1] was 85%, the Activity [2] was 63% and the Activity [3] was 83%. For the same molecule, the Activity [4] was 95%, the Activity [5] was 84% and the Activity [6] was 70%. It also gave an Activity [7] of 71%, an Activity ([8]; filed as antagonist) of 38% and an Activity [9] of 77%. The Activity [10] was 71%, the Activity ([11]; filed as antagonist) was 10% and the Activity ([12]; filed as antagonist) was 45%. For the same molecule, the Activity ([13]; filed as antagonist) was 43%, the Activity ([14]; filed as antagonist) was 28% and the Activity [15] was 101%.
With Cc1n[nH]c2ccc(-c3cncc(OC[C@@H](N)Cc4c[nH]c5ccccc45)c3)cc12 the Activity [1] was 87%, the Activity ([2]; filed as antagonist) was 13% and the Activity ([3]; filed as antagonist) was 7%. For the same molecule, the Activity [4] was 95%, the Activity ([5]; filed as antagonist) was 9% and the Activity [6] was 78%. For the same molecule, the Activity [7] was 90%, the Activity ([8]; filed as antagonist) was 23% and the Activity [9] was 86%. It also gave an Activity [10] of 77%, an Activity [12] of 79% and an Activity ([13]; filed as antagonist) of 2%. For the same molecule, the Activity ([14]; filed as antagonist) was 8% and the Activity [15] was 93%.
With CC(C)[C@H](CO)Nc1nc(Nc2cccc(Cl)c2)c2ncn(C(C)C)c2n1 [PURVALANOLA] the Activity [1] was 67%, the Activity [2] was 91% and the Activity [3] was 88%. It also gave an Activity [4] of 95%, an Activity [5] of 89% and an Activity [6] of 96%. The Activity ([7]; filed as antagonist) was 43%, the Activity [8] was 85% and the Activity ([9]; filed as antagonist) was 14%. It also gave an Activity [10] of 99%, an Activity ([11]; filed as antagonist) of 9% and an Activity [12] of 76%. For the same molecule, the Activity [13] was 81%, the Activity [14] was 93% and the Activity [15] was 82%.
Cn1cc(C2=C(c3cn(CCCSC(=N)N)c4ccccc34)C(=O)NC2=O)c2ccccc21 gave an Activity [1] of 76%, an Activity ([2]; filed as antagonist) of 16% and an Activity ([3]; filed as antagonist) of 31%. The Activity [4] was 84%, the Activity ([5]; filed as antagonist) was 11% and the Activity [6] was 92%. The Activity [7] was 75%, the Activity [8] was 66% and the Activity [9] was 91%. It also gave an Activity [10] of 91%, an Activity ([11]; filed as antagonist) of 3% and an Activity [12] of 65%. It also gave an Activity ([13]; filed as antagonist) of 8%, an Activity [14] of 88% and an Activity [15] of 77%.
CN(C)C[C@@H]1CCn2cc(c3ccccc32)C2=C(C(=O)NC2=O)c2cn(c3ccccc23)CCO1 showed an Activity [1] of 81%, an Activity ([2]; filed as antagonist) of 5% and an Activity [3] of 74%. For the same molecule, the Activity [4] was 91%, the Activity ([5]; filed as antagonist) was 44% and the Activity [6] was 99%. The Activity [7] was 75%, the Activity [9] was 97% and the Activity [11] was 68%. The Activity ([13]; filed as antagonist) was 38%, the Activity [14] was 94% and the Activity [15] was 78%.
In the case of Cn1c2ccccc2c2c3c(c4c5ccccc5n(CCC#N)c4c21)CNC3=O, the Activity ([1]; filed as antagonist) is reported as 6%, the Activity ([2]; filed as antagonist) is reported as 7% and the Activity ([3]; filed as antagonist) is reported as 30%. It also gave an Activity [4] of 87%, an Activity ([5]; filed as antagonist) of 6% and an Activity [6] of 68%. The Activity ([7]; filed as antagonist) was 5%, the Activity ([8]; filed as antagonist) was 5% and the Activity [9] was 65%. The Activity [10] was 98%, the Activity ([11]; filed as antagonist) was 8% and the Activity ([12]; filed as antagonist) was 46%. The Activity ([13]; filed as antagonist) was 5% and the Activity [15] was 75%.
